# Assay results as given in patent publication US9067897B2, “2,4-Diaminoquinazolines for spinal muscular atrophy” (Families of Spinal Muscular Atrophy, priority 2004, dated 2015).
# Test system: SMN2 promoter
# Experiment: SMN2 promoter assay (β-lactamase reporter) in NSC-34 cells
# Assay type: cell-based, mouse
# Conditions: SMN2 promoter driving β-lactamase, 12 point dose curve, average of 3-6 dose curve experiments
# Excerpt: All compounds were screened using an in vitro based SMN2 promoter assay. We used NSC-34 cells, a hybrid cell line between mouse spinal cord cells and mouse neuroblastoma cells. NSC-34 cells harbor an expression plasmid containing a 3.4 kb promoter fragment of the SMN2 gene driving β-lactamase expression.
# […] […] CCF2-AM diffuses across the plasma membrane and is converted into an active β-lactamase substrate by cytoplasmic esterase. […] The fold induction is proportional to the extent of β-lactamase produced and in turn proportional to SMN2 promoter activation for a given compound relative to vehicle (DMSO) control. […] These values are used to rank activities of the compounds and derive structure activity relationship.
compound,measurement,setting,value
"COCOC(COc1cccc2nc(N)nc(N)c12)c1ccc2c(c1)OCO2 (centres unmarked) [Example 155, 5-(2-Benzo[1,3]dioxol-5-yl-2-methoxymethoxyethoxy)quinazoline-2,4-diamine]",EC50,Mus musculus,< 1 µM
"CN1CCCCC1COc1cccc2nc(N)nc(N)c12 (centres unmarked) [Example 117, 5-(1-Methyl-piperidin-2-ylmethoxy)-quinazoline-2,4-diamine]",EC50,Mus musculus,< 1 µM
"Nc1nc(N)c2c(OC3CCc4ccc(F)cc43)cccc2n1 (centres unmarked) [Example 81, 5-(6-Fluoroindan-1-yloxy)-quinazoline-2,4-diamine]",EC50,Mus musculus,< 1 µM
"Nc1nc(N)c2c(OCC3CCN(C(=O)c4ccc(I)cc4)CC3)cccc2n1 [Example 136, [4-(2,4-Diaminoquinzolin-5-yloxymethyl)piperidin-1-yl]-(4-iodophenyl)methanone]",EC50,,< 1 µM
"Nc1nc(N)c2c(OCC3CCN(C(=O)c4ccccc4I)CC3)cccc2n1 [Example 137, [4-(2,4-Diaminoquinzolin-5-yloxymethyl)piperidin-1-yl]-(2-iodophenyl)methanone]",EC50,,< 1 µM
"Nc1nc(N)c2c(-c3cccc(Cl)c3)cccc2n1 [Example 91, 5-(3-Chlorophenyl)-quinazoline-2,4-diamine]",EC50,Mus musculus,< 1 µM
"Nc1nc(N)c2c(OCc3ccccc3C(F)(F)F)cccc2n1 [Example 99, 5-(2-Trifluoromethylbenzyloxy)-quinazoline-2,4-diamine]",EC50,Mus musculus,< 1 µM
"Nc1nc(N)c2c(OC3CCc4ccc(Cl)cc43)cccc2n1 (centres unmarked) [Example 61, 5-(6-Chloro-indan-1-yloxy)-quinazoline-2,4-diamine]",EC50,Mus musculus,< 1 µM
"Nc1nc(N)c2c(OCC3CCCCO3)cccc2n1 (centres unmarked) [Example 55, 5-(Tetrahydropyran-2-ylmethoxy)quinazoline-2,4-diamine]",EC50,Mus musculus,< 1 µM
"COCOCC(Oc1cccc2nc(N)nc(N)c12)c1ccc2c(c1)OCO2 (centres unmarked) [Example 156, 5-(1-Benzo[1,3]dioxol-5-yl-2-methoxymethoxyethoxy)quinazoline-2,4-diamine]",EC50,Mus musculus,< 1 µM
"CC(=O)Nc1nc(NC(C)=O)c2c(OCc3ccc(Cl)cc3)cccc2n1 [Example 32, N-[2-Acetylamino-5-(4-chlorobenzyloxy)quinazolin-4-yl]acetamide]",EC50,Mus musculus,5 to 10 µM
"Nc1nc(N)c2c(OCc3cccnc3)cccc2n1 [Example 11, 5-(Pyridin-3-ylmethoxy)quinazoline-2,4-diamine]",EC50,Mus musculus,< 1 µM
"Nc1nc(N)c2c(OCC3CC4CCC3C4)cccc2n1 (centres unmarked) [Example 151, 5-(Bicyclo[2.2.1]hept-2-ylmethoxy)quinazoline-2,4-diamine]",EC50,Mus musculus,< 1 µM
"Nc1nc(N)c2c(OCc3ccc(F)cc3)cccc2n1 [Example 97, 5-(4-Fluorobenzyloxy)-quinazoline-2,4-diamine]",EC50,Mus musculus,< 1 µM
"Nc1nc(N)c2c(OCc3ccc(Cl)cc3)cccc2n1 [Example 2, 5-(4-Chlorobenzyloxy)quinazoline-2,4-diamine]",EC50,Mus musculus,< 1 µM
"Nc1nc(N)c2c(OC3CC4CCC3C4)cccc2n1 (centres unmarked) [Example 124, 5-(Bicyclo[2.2.1]hept-2-yloxy)-quinazoline-2,4-diamine]",EC50,Mus musculus,< 1 µM
"Nc1nc(N)c2c(OCc3cccc(C(F)(F)F)c3)cccc2n1 [Example 98, 5-(3-Trifluoromethylbenzyloxy)-quinazoline-2,4-diamine]",EC50,Mus musculus,< 1 µM
"Nc1nc(N)c2c(OCc3ccccc3Cl)cccc2n1 [Example 6, 5-(2-Chlorobenzyloxy)quinazoline-2,4-diamine]",EC50,Mus musculus,< 1 µM
"Nc1nc(N)c2c(OCc3ccc(F)cc3F)cccc2n1 [Example 85, 5-(2,4-Difluorobenzyloxy)-quinazoline-2,4-diamine]",EC50,Mus musculus,< 1 µM
"Nc1nc(N)c2c(OCC(F)(F)F)cccc2n1 [Example 3, 5-(2,2,2-Trifluoroethoxy)quinazoline-2,4-diamine]",EC50,Mus musculus,1 to 5 µM
"COCC(Oc1cccc2nc(N)nc(N)c12)c1ccccc1 (centres unmarked) [Example 166, 5-(2-Methoxy-1-phenylethoxy)quinazoline-2,4-diamine]",EC50,Mus musculus,< 1 µM
"COc1ccccc1COc1cccc2nc(N)nc(N)c12 [Example 142, 5-(2-Methoxybenzyloxy)quinazoline-2,4-diamine]",EC50,Mus musculus,< 1 µM
"Nc1nc(N)c2c(COc3ccc(F)cc3)cccc2n1 [Example 45, 5-(4-Fluorophenoxymethyl)quinazoline-2,4-diamine]",EC50,Mus musculus,< 1 µM
"Nc1nc(N)c2c(OCC34CC5CC(CC(C5)C3)C4)cccc2n1 [Example 73, 5-(Adamantan-1-ylmethoxy)-quinazoline-2,4-diamine]",EC50,Mus musculus,< 1 µM
"Nc1nc(N)c2c(OCc3ccsc3)cccc2n1 [Example 47, 5-(Thiophen-3-ylmethoxy)quinazoline-2,4-diamine]",EC50,Mus musculus,< 1 µM
"Nc1nc(N)c2c(OC3CCc4c(F)cccc43)cccc2n1 (centres unmarked) [Example 80, 5-(4-Fluoroindan-1-yloxy)-quinazoline-2,4-diamine]",EC50,Mus musculus,< 1 µM
"Nc1nc(N)c2c(O[C@H]3CCc4ccccc43)cccc2n1 [Example 41, 5-((S)-Indan-1-yloxy)quinazoline-2,4-diamine]",EC50,Mus musculus,5 to 10 µM
"CC(Oc1cccc2nc(N)nc(N)c12)c1ccccc1Cl (centres unmarked) [Example 104, 5-[1-(2-Chlorophenyl)ethoxy]-quinazoline-2,4-diamine]",EC50,Mus musculus,< 1 µM
"Nc1nc(N)c2c(OCC3CC3)cccc2n1 [Example 16, 5-(Cyclopropylmethoxy)quinazoline-2,4-diamine]",EC50,Mus musculus,< 1 µM
"Nc1nc(N)c2c(OCc3ccco3)cccc2n1 [Example 21, 5-(Furan-2-ylmethoxy)quinazoline-2,4-diamine]",EC50,Mus musculus,< 1 µM
"Nc1nc(N)c2c(Cc3ccccc3)cccc2n1 [Example 24, 5-Benzylquinazoline-2,4-diamine]",EC50,Mus musculus,< 1 µM
"CC(Oc1cccc2nc(N)nc(N)c12)c1ccncc1 (centres unmarked) [Example 48, 5-(1-Pyridin-4-ylethoxy)quinazoline-2,4-diamine]",EC50,Mus musculus,< 1 µM
"Nc1nc(N)c2c(OCc3ccc4c(c3)OCO4)cccc2n1 [Example 54, 5-(Benzo[1,3]dioxol-5-ylmethoxy)quinazoline-2,4-diamine]",EC50,Mus musculus,< 1 µM
"Nc1nc(N)c2c(S(=O)(=O)c3ccc(Cl)cc3)cccc2n1 [Example 31, 5-(4-Chlorobenzenesulfonyl)quinazoline-2,4-diamine]",EC50,Mus musculus,1 to 5 µM
"CCC(Oc1cccc2nc(N)nc(N)c12)c1ccc(Cl)cc1 (centres unmarked) [Example 50, 5-[1-(4-Chlorophenyl)propoxy]quinazoline-2,4-diamine]",EC50,Mus musculus,< 1 µM
"Nc1nc(N)c2c(OCC(O)c3cccc(Cl)c3)cccc2n1 (centres unmarked) [Example 161, 1-(3-Chlorophenyl)-2-(2,4-diaminoquinazolin-5-yloxy)ethanol]",EC50,Mus musculus,< 1 µM
"Cc1ccc(COc2cccc3nc(N)nc(N)c23)cc1 [Example 1, 5-(4-Methylbenzyloxy)quinazoline-2,4-diamine]",EC50,Mus musculus,< 1 µM
"CC1(COc2cccc3nc(N)nc(N)c23)COC1 [Example 127, 5-(3-Methyl-oxetan-3-ylmethoxy)-quinazoline-2,4-diamine]",EC50,Mus musculus,< 1 µM
"COCOCC(COc1cccc2nc(N)nc(N)c12)c1ccc(Cl)cc1 (centres unmarked) [Example 68, 5-[2-(4-Chlorophenyl)-3-methoxymethoxypropoxy]-quinazoline-2,4-diamine]",EC50,Mus musculus,< 1 µM
"5-[1-(4-fluorophenyl)-1-methyl-ethoxy]-quinazoline-2,4-diamine [Example 101]",EC50,,< 1 µM
"Nc1nc(N)c2c(OC3(c4cccc(Cl)c4)CCCCC3)cccc2n1 [Example 145, 5-[1-(3-Chlorophenyl)cyclohexyloxy]quinazoline-2,4-diamine]",EC50,Mus musculus,1 to 5 µM
